BigSolDB 2.1

Conditions: in DMF

solubility (mole fraction) (303.2 K) | solubility (mole fraction) (313.2 K) | solubility (mole fraction) (323.2 K) | solubility (mole fraction) (333.2 K) | solubility (mole fraction) (343.2 K) | solubility (mole fraction) (353.2 K) | Structure (SMILES)
2.64e-05 | 3.51e-05 | 4.56e-05 | 6.16e-05 | 8.67e-05 | 0.000122 | Clc1ccc(-c2c3nc(c(-c4ccc(Cl)cc4)c4ccc([nH]4)c(-c4ccc(Cl)cc4)c4nc(c(-c5ccc(Cl)cc5)c5ccc2[nH]5)C=C4)C=C3)cc1
9.76e-05 | 0.000107 | 0.00012 | 0.000136 | 0.000166 |  | C1=Cc2nc1c(-c1ccccc1)c1ccc([nH]1)c(-c1ccccc1)c1nc(c(-c3ccccc3)c3ccc([nH]3)c2-c2ccccc2)C=C1
